According to the NIST ThermoML archive (doi:10.1021/je034102r):

Assay: molar heat capacity at constant pressure
Settings: 101.33 kPa, Liquid, heat bridge-scanning calorimeter

CCCCn1cc[n+](C)c1.F[P-](F)(F)(F)(F)F [1-butyl-3-methylimidazolium hexafluorophosphate]
Settings	molar heat capacity at constant pressure [J/K/mol]
408.32 K	474.58
408.61 K	473.73
408.74 K	473.45
408.88 K	473.45
409.01 K	473.45
409.14 K	473.73
409.27 K	474.02
409.4 K	474.02
409.53 K	473.73
409.67 K	473.73
409.8 K	474.3
409.93 K	474.58
410.22 K	475.15
410.35 K	474.58
410.48 K	474.3
410.61 K	474.3
410.74 K	474.58
410.88 K	474.3
411.01 K	474.3
411.14 K	474.02
411.27 K	473.73
411.58 K	475.72
411.71 K	475.72
411.84 K	476.01
411.97 K	476.01
412.11 K	475.72
412.24 K	475.15
412.37 K	474.58
412.5 K	474.87
412.63 K	474.58
412.77 K	475.15
412.9 K	475.15
413.18 K	474.58
413.31 K	474.58
413.45 K	474.3
413.58 K	474.3
413.71 K	474.3
413.84 K	474.3
413.97 K	474.02
414.11 K	474.02
414.24 K	474.3
414.53 K	474.58
414.67 K	475.44
414.8 K	476.01
414.93 K	476.29
415.07 K	476.29
415.2 K	476.57
415.33 K	476.01
415.47 K	476.01
415.6 K	475.72
415.73 K	475.44
415.87 K	475.44
416.15 K	475.44
416.29 K	475.44
416.42 K	475.15
416.55 K	474.87
416.69 K	475.15
416.82 K	475.15
416.95 K	475.72
417.08 K	476.01
417.22 K	477.43
417.52 K	476.57
417.65 K	476.86
417.8 K	476.57
417.93 K	476.29
418.06 K	476.29
418.2 K	475.72
418.33 K	475.72
418.46 K	475.72
418.6 K	475.44
418.73 K	476.01
418.86 K	477.14
419.15 K	478.56
419.29 K	477.71
419.42 K	477.14
419.55 K	476.57
419.69 K	476.57
419.82 K	476.29
419.96 K	476.57
420.09 K	476.57
420.22 K	476.29
420.52 K	477.14
420.66 K	476.57
420.79 K	477.14
420.92 K	477.14
421.06 K	477.14
421.19 K	477.43
421.33 K	476.86
421.46 K	476.86
421.59 K	476.86
421.73 K	476.57
421.86 K	476.57
422.15 K	477.14
422.28 K	477.99
422.42 K	478.56
422.55 K	478.28
422.69 K	477.99
422.82 K	477.71
422.95 K	477.71
423.09 K	477.99
423.22 K	478.56
423.52 K	477.71
423.65 K	477.43
423.79 K	477.71
423.92 K	477.71
424.05 K	477.71
424.2 K	477.99
424.34 K	478.28
424.47 K	478.56
424.61 K	478.85
424.74 K	478.28
424.87 K	478.28
425.17 K	478.85
425.3 K	478.85
425.43 K	478.56
425.57 K	478.28
425.7 K	478.85
425.84 K	479.42
425.97 K	480.84
426.11 K	481.4
426.24 K	480.55
426.54 K	479.7
426.67 K	479.42
426.81 K	479.13
426.94 K	479.42
427.08 K	479.42
427.21 K	479.42
427.35 K	479.13
427.48 K	479.13
427.62 K	478.85
427.75 K	479.13
427.89 K	479.13
428.18 K	479.13
428.32 K	479.7
428.45 K	479.98
428.59 K	479.98
428.72 K	479.98
428.85 K	479.7
428.99 K	479.7
429.12 K	479.42
429.26 K	479.42
429.56 K	479.7
429.69 K	479.7
429.83 K	480.27
429.96 K	480.55
430.1 K	480.55
430.23 K	480.55
430.37 K	481.12
430.51 K	480.84
430.65 K	480.55
430.78 K	480.55
430.92 K	480.55
431.21 K	480.27
431.35 K	480.27
431.48 K	480.55
431.62 K	481.12
431.75 K	481.4
431.89 K	481.69
432.02 K	481.12
432.16 K	481.12
432.29 K	480.84
432.59 K	481.12
432.72 K	481.12
432.86 K	481.12
432.99 K	481.12
433.13 K	481.12
433.27 K	481.12
433.4 K	481.12
433.54 K	481.4
433.67 K	482.83
433.81 K	484.25
433.95 K	483.96
434.24 K	482.54
434.37 K	482.54
434.51 K	483.11
434.65 K	483.11
434.78 K	482.83
434.92 K	482.54
435.05 K	482.54
435.19 K	482.26
435.32 K	482.26
435.62 K	482.83
435.76 K	483.11
435.9 K	483.11
436.03 K	483.39
436.17 K	483.39
436.3 K	483.11
436.44 K	483.68
436.57 K	483.96
436.71 K	483.39
436.85 K	483.68
436.99 K	483.11
437.29 K	483.68
437.42 K	483.96
437.56 K	484.53
437.69 K	484.82
437.83 K	485.38
437.96 K	485.1
438.1 K	485.1
438.24 K	484.53
438.37 K	483.96
438.67 K	484.53
438.81 K	484.53
438.94 K	484.82
439.08 K	485.1
439.21 K	484.82
439.35 K	484.82
439.49 K	484.82
439.62 K	485.38
439.76 K	485.95
439.89 K	485.67
440.03 K	485.95
440.32 K	485.1
440.46 K	484.82
440.6 K	484.82
440.73 K	484.82
440.87 K	484.82
441 K	484.82
441.14 K	485.1
441.28 K	484.82
441.41 K	484.53
441.71 K	484.82
441.85 K	485.1
441.98 K	485.1
442.12 K	485.1
442.25 K	485.67
442.39 K	486.52
442.53 K	486.52
442.66 K	485.95
442.8 K	485.95
442.93 K	486.24
443.07 K	486.24
443.37 K	485.95
443.51 K	485.95
443.65 K	485.95
443.78 K	485.95
443.92 K	486.24
444.05 K	485.95
444.19 K	486.24
444.32 K	485.95
444.46 K	486.52
444.76 K	485.95
444.9 K	485.95
445.03 K	485.95
445.17 K	486.24
445.3 K	486.8
445.44 K	486.52
445.58 K	487.37
445.71 K	487.37
445.85 K	486.8
445.99 K	487.09
446.12 K	486.52
446.42 K	487.09
446.55 K	487.09
446.69 K	487.09
446.83 K	487.37
446.96 K	487.94
447.1 K	487.66
447.23 K	487.66
447.37 K	487.37
447.51 K	487.09
447.81 K	489.08
447.94 K	489.65
448.08 K	489.36
448.22 K	488.51
448.35 K	488.23
448.49 K	487.94
448.62 K	487.94
448.76 K	488.23
448.9 K	487.94
449.03 K	487.66
449.17 K	487.94
449.46 K	487.94
449.6 K	487.94
449.74 K	488.79
449.89 K	489.08
450.02 K	489.36
450.16 K	489.08
450.3 K	488.51
450.43 K	488.51
450.57 K	488.23
450.87 K	488.51
451 K	489.08
451.14 K	489.08
451.28 K	488.79
451.41 K	488.51
451.55 K	488.51
451.69 K	488.51
451.82 K	489.08
451.96 K	489.36
452.1 K	489.36
452.23 K	489.08
452.53 K	489.08
452.67 K	488.79
452.8 K	489.65
452.94 K	490.5
453.07 K	491.07
453.21 K	490.5
453.35 K	490.21
453.48 K	489.93
453.62 K	489.65
453.92 K	489.65
454.06 K	489.93
454.2 K	489.93
454.33 K	489.93
454.47 K	489.65
454.61 K	489.65
454.74 K	489.93
454.88 K	489.93
455.02 K	489.93
455.15 K	489.93
455.29 K	489.93
455.59 K	490.5
455.72 K	490.5
455.86 K	490.21
456 K	490.5
456.13 K	490.78
456.28 K	490.78
456.42 K	490.78
456.56 K	490.78
456.69 K	491.07
457 K	491.35
457.13 K	491.35
457.27 K	491.35
457.41 K	491.07
457.54 K	491.07
457.68 K	491.64
457.82 K	491.64
457.95 K	491.64
458.09 K	491.64
458.23 K	492.2
458.37 K	492.49
458.66 K	492.49
458.8 K	492.2
458.93 K	491.92
459.07 K	491.92
459.21 K	491.92
459.35 K	492.2
459.48 K	492.49
459.62 K	492.77
459.76 K	493.34
460.06 K	492.49
460.19 K	492.77
460.33 K	494.19
460.47 K	495.05
460.6 K	494.76
460.74 K	494.48
460.88 K	493.62
461.01 K	493.06
461.15 K	492.77
461.28 K	492.77
461.42 K	493.06
461.72 K	493.34
461.85 K	493.06
461.99 K	492.77
462.12 K	493.06
462.26 K	493.06
462.4 K	492.77
462.53 K	493.34
462.67 K	493.06
462.82 K	493.06
463.12 K	493.34
463.26 K	493.06
463.39 K	493.62
463.53 K	493.34
463.67 K	493.34
463.81 K	493.62
463.94 K	493.62
464.08 K	493.62
464.22 K	493.62
464.35 K	494.48
464.49 K	495.33
464.79 K	497.32
464.92 K	496.18
465.06 K	495.33
465.2 K	494.76
465.34 K	494.48
465.47 K	495.05
465.61 K	495.9
465.75 K	495.9
465.89 K	496.47
466.19 K	494.76
